Data published in paper PMC9203742 (Nature Communications, 2022).
Blank lines part the entries; values can stand above or below the compound they belong to.

Tests used:
mGlu1 K61H/N264H mutant = target: T1, mGlu1 K61H/N264H mutant (Rattus norvegicus, UniProt P23385, K61H/N264H); test: Fura-2 Ca2+ imaging in HEK293 cells expressing mGlu1 K61H/N264H; assay type: cell-based; settings: 10 μM metal ion or metal complex
T1 construct: expressed in transfected cells; host or cells: HEK293

mGlu1 P58H/N264H mutant = target: T2, mGlu1 P58H/N264H mutant (Rattus norvegicus, UniProt P23385, N264H/P58H); test: Fura-2 Ca2+ imaging in HEK293 cells expressing mGlu1 P58H/N264H; assay type: cell-based; settings: for Receptor activation ([Ca2+]i change, Δratio): 10 μM metal ion or metal complex; for Δratio of 3 µM Pd(bpy)-induced response, ave / Δratio of 10 µM glutamate-induced response, ave: n = 20
T2 construct: expressed in transfected cells; host or cells: HEK293

mGlu1 P57H/N264H mutant = target: T3, mGlu1 P57H/N264H mutant (Rattus norvegicus, UniProt P23385, N264H/P57H); test: Fura-2 Ca2+ imaging in HEK293 cells expressing mGlu1 P57H/N264H; assay type: cell-based; settings: 10 μM metal ion or metal complex
T3 construct: expressed in transfected cells; host or cells: HEK293

mGlu1 E60H/N264H mutant = target: T4, mGlu1 E60H/N264H mutant (Rattus norvegicus, UniProt P23385, E60H/N264H); test: Fura-2 Ca2+ imaging in HEK293 cells expressing mGlu1 E60H/N264H; assay type: cell-based; settings: 10 μM metal ion or metal complex
T4 construct: expressed in transfected cells; host or cells: HEK293

mGlu1 A59H/N264H mutant = target: T5, mGlu1 A59H/N264H mutant (Rattus norvegicus, UniProt P23385, A59H/N264H); test: Fura-2 Ca2+ imaging in HEK293 cells expressing mGlu1 A59H/N264H; assay type: cell-based; settings: 10 μM metal ion or metal complex
T5 construct: expressed in transfected cells; host or cells: HEK293

[1] = test system: MLIs infected with AAV-hSyn-mGlu1^WT; test: sAP-mediated currents (firing rate) of MLIs infected with AAV-hSyn-mGlu1^WT; assay type: cell-based, mouse
Method: (§1) To monitor the excitability of MLIs, sAP-mediated current responses were extracellulary recorded by a loose cell-attached voltage-clamp at a holding potential of 0 mV. Glass electrodes used for cell-attached recordings had resistances of 3–5 MΩ when filled with ACSF. The current recordings from AAV-infected cells were performed 1−2 weeks after infection. The EPSCs and sAP-mediated currents were recorded using an Axopatch 200B amplifier (Molecular Devices), and the pClamp system (version 9.2; Molecular Devices) was used for data acquisition and analysis. The signals were filtered at 1 kHz and digitized at 4 kHz for the evoked EPSCs and 10 kHz for the sAP-mediated currents.
(§2) Injection of viral solutions was performed as described previously with slight modifications. Briefly, under deep anesthesia, with an intraperitoneal injection of medetomidine (0.3 mg/kg), midazolam (4.0 mg/kg), and butorphanol (5.0 mg/kg), 4 µL of the solutions containing AAV mixture were directly injected into the vermis of cerebellar lobules V-VIII (200-300 µm in depth, 12 µL/h in rate) of WT mice (C57BL/6J, P20-P30) using glass pipette (30–40 µm in diameter) and microinjector (Nanoliter; World Precision Instruments). In all, 1−2 week after injection, the mice were used for each experiment.

[2] = test system: MLIs infected with AAV-hSyn-mGlu1^CBC; test: sAP-mediated currents (firing rate) of MLIs infected with AAV-hSyn-mGlu1^CBC; assay type: cell-based, mouse
Method: as §1, §2

[3] = test system: Purkinje cells in cerebellar slices from mGlu1^CBC/CBC mice; test: chemLTD recording (PF-EPSC) in Purkinje cells of acute cerebellar slices, mGlu1^CBC/CBC mice; assay type: cell-based, mouse; settings: DHPG 50 μM for 10 min; t = 31−35 min
Method: (§3) Sagittal cerebellar slices were cut with a microslicer (Linear slicer Pro7; DOSAKA EM) in cutting solution buffer and then incubated in ACSF gassed with 5% CO2 and 95% O2 at room temperature.
(§4) Whole-cell patch-clamp recordings were made from visually identified Purkinje cells using a 60× water-immersion objective attached to an upright microscope (BX51WI, Olympus) at room temperature, as described previously. […] Picrotoxin (100 µM; Sigma) was always added to the saline to block inhibitory synaptic transmission.
(§5) To evoke EPSCs derived from CF (CF-EPSCs) and PF (PF-EPSCs) inputs onto Purkinje cells, square pulses were applied through a stimulating electrode placed on the granular layer and the molecular layer (50 µm away from the pial surface), respectively. The selective stimulation of CFs and PFs was confirmed by the paired-pulse depression (PPD) and paired-pulse facilitation (PPF) of EPSC amplitudes at a 50-ms interstimulus interval (ISI), respectively.
(§6) For the LTD sessions, PF-EPSCs were recorded successively at a frequency of 0.1 Hz from Purkinje cells clamped at –80 mV. After a stable PF-EPSC amplitude had been observed for at least 5 min, a conjunctive stimulation that consisted of 30 single PF stimuli together with a 200 ms depolarizing pulse from a holding potential of –60 to +20 mV was applied for LTD induction.
(§7) To chemically induce LTD (chemLTD), 50 µM (S)-3,5-dihydroxyphenylglycine (DHPG) or 1 µM Pd(sulfo-bpy) was applied for 10 min in a current-clamp mode. We often observed a transient decrease in PF-EPSC amplitude after the application of each drug probably because Purkinje cells under current-clamp conditions excite spontaneously to suppress presynaptic function through the retrograde signaling. Access resistances were monitored every 10 s by measuring the peak currents in response to 2 mV, 50-ms hyperpolarizing steps throughout the experiments; the measurements were discarded if the resistance changed by >20% of its original value. The normalized EPSC amplitude on the ordinate represents the EPSC amplitude for the average of six traces for 1 min divided by that of the average of six traces for 1 min immediately before the conjunctive stimulation or the drug application.

[4] = test system: Purkinje cells in cerebellar slices from mGlu1^+/+ mice; test: chemLTD recording (PF-EPSC) in Purkinje cells of acute cerebellar slices, mGlu1^+/+ mice; assay type: cell-based, mouse; settings: DHPG 50 μM for 10 min; t = 31−35 min
Method: as §3, §4, §5, §6, §7

primary cortical neurons = test: Fura-2 Ca2+ imaging (abnormal Ca2+ response) in cultured cortical neurons; settings: co-treated 30 µM LY367385, 1 µM FITM or 10 µM U73122
mGlu1(N264H) mutant = target: T6, mGlu1(N264H) mutant (Rattus norvegicus, UniProt P23385, N264H); test: Fura-2 Ca2+ imaging in HEK293 cells expressing mGlu1(N264H); assay type: cell-based; settings: 10 µM LY367385, 1 µM FITM, 10 µM YM254890 or 1 µM U73122
T6 construct: expressed in transfected cells; host or cells: HEK293

[5] = Suppl Fig14d, AAV-hSyn-mGlu1WT, mean of 12 cells
[6] = Suppl Fig14d, AAV-hSyn-mGlu1CBC, mean of 15 cells

T2 sequence (P23385 19-1199 P58H/N264H): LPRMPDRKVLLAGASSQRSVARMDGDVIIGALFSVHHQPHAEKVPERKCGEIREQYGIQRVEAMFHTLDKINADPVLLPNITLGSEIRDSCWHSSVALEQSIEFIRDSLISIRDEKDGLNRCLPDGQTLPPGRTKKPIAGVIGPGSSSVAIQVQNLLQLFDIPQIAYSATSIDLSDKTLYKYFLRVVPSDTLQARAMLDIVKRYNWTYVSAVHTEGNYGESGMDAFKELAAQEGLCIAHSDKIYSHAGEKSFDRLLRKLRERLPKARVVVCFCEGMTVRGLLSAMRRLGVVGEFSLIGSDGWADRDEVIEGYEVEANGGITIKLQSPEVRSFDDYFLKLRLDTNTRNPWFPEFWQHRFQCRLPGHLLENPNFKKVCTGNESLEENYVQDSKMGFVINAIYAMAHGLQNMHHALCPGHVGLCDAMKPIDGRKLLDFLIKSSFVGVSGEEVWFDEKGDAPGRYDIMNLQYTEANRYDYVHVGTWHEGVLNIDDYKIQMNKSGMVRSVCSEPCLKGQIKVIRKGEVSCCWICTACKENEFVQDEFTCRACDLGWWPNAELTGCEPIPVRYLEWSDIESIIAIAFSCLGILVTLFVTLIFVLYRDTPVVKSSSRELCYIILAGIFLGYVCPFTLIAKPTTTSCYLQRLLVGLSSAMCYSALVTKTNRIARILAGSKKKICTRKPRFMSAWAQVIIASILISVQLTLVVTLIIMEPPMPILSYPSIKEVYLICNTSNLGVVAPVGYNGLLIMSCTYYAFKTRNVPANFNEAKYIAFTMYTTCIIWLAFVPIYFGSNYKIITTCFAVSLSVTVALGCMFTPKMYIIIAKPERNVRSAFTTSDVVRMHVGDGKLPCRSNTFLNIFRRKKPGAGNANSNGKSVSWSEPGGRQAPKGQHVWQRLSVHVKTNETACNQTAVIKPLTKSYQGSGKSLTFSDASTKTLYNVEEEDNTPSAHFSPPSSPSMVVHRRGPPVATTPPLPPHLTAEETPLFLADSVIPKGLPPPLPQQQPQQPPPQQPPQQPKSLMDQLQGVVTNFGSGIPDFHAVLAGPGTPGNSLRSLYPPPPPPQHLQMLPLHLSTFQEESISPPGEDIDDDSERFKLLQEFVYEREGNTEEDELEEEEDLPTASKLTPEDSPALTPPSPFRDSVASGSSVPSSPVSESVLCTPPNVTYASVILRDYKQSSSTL
T4 sequence (P23385 19-1199 E60H/N264H): as the sequence (P23385 19-1199 P58H/N264H) above, with H40P, E42H counted along it
T5 sequence (P23385 19-1199 A59H/N264H): as the sequence (P23385 19-1199 P58H/N264H) above, with H40P, A41H counted along it
T1 sequence (P23385 19-1199 K61H/N264H): as the sequence (P23385 19-1199 P58H/N264H) above, with H40P, K43H counted along it
T3 sequence (P23385 19-1199 P57H/N264H): as the sequence (P23385 19-1199 P58H/N264H) above, with P39H, H40P counted along it
T6 sequence (P23385 19-1199 N264H): as the sequence (P23385 19-1199 P58H/N264H) above, with H40P counted along it

Structure (SMILES): [Cd+2] [Cd^2+, reference compound]
- Receptor activation ([Ca2+]i change, Δratio) (mGlu1 K61H/N264H mutant): failed to activate
- Receptor activation ([Ca2+]i change, Δratio) (mGlu1 P58H/N264H mutant): failed to activate
- Receptor activation ([Ca2+]i change, Δratio) (mGlu1 P57H/N264H mutant): failed to activate
- Receptor activation ([Ca2+]i change, Δratio) (mGlu1 E60H/N264H mutant): failed to activate
- Receptor activation ([Ca2+]i change, Δratio) (mGlu1 A59H/N264H mutant): failed to activate

Structure (SMILES): [Cu+2] [Cu^2+, reference compound]
- Receptor activation ([Ca2+]i change, Δratio) (mGlu1 K61H/N264H mutant): failed to activate
- Receptor activation ([Ca2+]i change, Δratio) (mGlu1 P58H/N264H mutant): failed to activate
- Receptor activation ([Ca2+]i change, Δratio) (mGlu1 P57H/N264H mutant): failed to activate
- Receptor activation ([Ca2+]i change, Δratio) (mGlu1 E60H/N264H mutant): failed to activate
- Receptor activation ([Ca2+]i change, Δratio) (mGlu1 A59H/N264H mutant): failed to activate

Structure (SMILES): N[C@H](C(=O)O)c1cc(O)cc(O)c1 [DHPG, (S)-3,5-dihydroxyphenylglycine]
- firing rate, DHPG (50uM), AVE(Hz) ([1]; Suppl Fig14d, AAV-hSyn-mGlu1WT, mean): 10.6722 Hz
- DHPG/CTL, AVE [1, 5]: 1.47
- sAP events, DHPG (50uM), AVE [1, 5]: 320.167
- Number of spontaneous action potentials (sAP) ([1]; bath application of 50 µM DHPG): clearly increased
- firing rate, DHPG (50uM), AVE(Hz) ([2]; Suppl Fig14d, AAV-hSyn-mGlu1CBC, mean): 11.5511 Hz
- DHPG/CTL, AVE [2, 6]: 1.507
- sAP events, DHPG (50uM), AVE [2, 6]: 346.533
- Number of spontaneous action potentials (sAP) ([2]; bath application of 50 µM DHPG): clearly increased
- chemLTD: normalized PF-EPSC amplitude [3]: 56 ± 6%
- chemLTD: normalized PF-EPSC amplitude [4]: 55 ± 7%

- Effect on Pd(bpy)-induced Ca2+ responses (mGlu1 P58H/N264H mutant; 10 μM LY367385, 3 µM Pd(bpy)): inhibited
- Δratio of 3 µM Pd(bpy)-induced response, ave (mGlu1 P58H/N264H mutant; [LY367385] 0.1 µM): 0.1859
- Δratio of 10 µM glutamate-induced response, ave (mGlu1 P58H/N264H mutant; [LY367385] 0.1 µM): 0.243
- Δratio of 3 µM Pd(bpy)-induced response, ave (mGlu1 P58H/N264H mutant; [LY367385] 0.3 µM): 0.1915
- Δratio of 10 µM glutamate-induced response, ave (mGlu1 P58H/N264H mutant; [LY367385] 0.3 µM): 0.2897
- Δratio of 3 µM Pd(bpy)-induced response, ave (mGlu1 P58H/N264H mutant; [LY367385] 1 µM): 0.262
- Δratio of 10 µM glutamate-induced response, ave (mGlu1 P58H/N264H mutant; [LY367385] 1 µM): 0.3662
- Δratio of 3 µM Pd(bpy)-induced response, ave (mGlu1 P58H/N264H mutant; [LY367385] 3 µM): 0.1837
- Δratio of 10 µM glutamate-induced response, ave (mGlu1 P58H/N264H mutant; [LY367385] 3 µM): 0.2021
- Δratio of 3 µM Pd(bpy)-induced response, ave (mGlu1 P58H/N264H mutant; [LY367385] 10 µM): 0.007225
- Δratio of 10 µM glutamate-induced response, ave (mGlu1 P58H/N264H mutant; [LY367385] 10 µM): 0.09778
- Δratio of 3 µM Pd(bpy)-induced response, ave (mGlu1 P58H/N264H mutant; [LY367385] 30 µM): 0.008008
- Δratio of 10 µM glutamate-induced response, ave (mGlu1 P58H/N264H mutant; [LY367385] 30 µM): 0.0409
- Δratio of 3 µM Pd(bpy)-induced response, ave (mGlu1 P58H/N264H mutant; [LY367385] 100 µM): 0.01163
- Δratio of 10 µM glutamate-induced response, ave (mGlu1 P58H/N264H mutant; [LY367385] 100 µM): 0.05699
- Effect on glutamate-induced Ca2+ responses (mGlu1 P58H/N264H mutant; pretreatment with LY367385, 10 µM glutamate): suppressed
- Effect of pre-treated inhibitor on 10 µM Pd(bpy)-induced Ca2+ responses (mGlu1(N264H) mutant): inhibited
Structure (SMILES): Cc1cc(C(=O)O)ccc1[C@H](N)C(=O)O [LY367385, reference compound]
- Effect of inhibitor on 30 µM Pd(bpy)-induced [Ca2+]i elevation (primary cortical neurons): suppressed by neither

Structure (SMILES): [Ni+2] [Ni^2+, reference compound]
- Receptor activation ([Ca2+]i change, Δratio) (mGlu1 K61H/N264H mutant): failed to activate
- Receptor activation ([Ca2+]i change, Δratio) (mGlu1 P58H/N264H mutant): failed to activate
- Receptor activation ([Ca2+]i change, Δratio) (mGlu1 P57H/N264H mutant): failed to activate
- Receptor activation ([Ca2+]i change, Δratio) (mGlu1 E60H/N264H mutant): failed to activate
- Receptor activation ([Ca2+]i change, Δratio) (mGlu1 A59H/N264H mutant): failed to activate
